One assay has as its system S. epidermis ATCC 51625. The experiment in a line: microbe, parasite or virus in culture. It counts as cell-based, S. epidermidis. Here is the method: (§1) Strains were obtained from American Type Culture Collection (ATCC, Manassas, VA) or the clinical isolate collection at Trideum Biosciences (Frederick, MD, USA). Bioluminescence strains of P. aeruginosa 19660, transfected with the Xen5 luciferase gene, and S. aureus ATCC® 49525™ (Wright), transfected with the Xen36 luciferase gene, were obtained from Perkin Elmer (Hopkinton, MA).
(§2) A single colony was aseptically picked from an agar overlay and released in 25–30 mL of pre-warmed trypticase soy broth in a culture flask. Each culture was incubated overnight in a 37°C incubator. […] Pathogen growth was measured by absorbance at 600 nm. Four replicas were included for each test agent concentration. […]

For assay [1], the system named is bioluminescent P. aeruginosa 19660. Description: Bioluminescence time-kill assay. The conditions noted are these: antibiotics after 30 min incubation, triplicates, two independent experiments. It counts as cell-based, Pseudomonas aeruginosa. As to the method:
as §1
(§3) Non-invasive real-time evaluation of viability, mammalian, and bacterial cells, was performed using bioluminescent human keratinocytes (HaCaT, AddexBio, San Diego, CA) and murine L929 fibroblast cells (ATCC, Manassas, VA). The bioluminescent variants were constructed by transfection with a luciferase gene (RediFect Red-Fluc-Puromycin, Catalog #CL596002) (Hamblin et al., [2003]). […] Each concentration was performed in triplicate. Bioluminescence imaging was performed at pre-specified times (0, 15, and 30 min and 1, 3, 5, 8, and 24 h) and compared to concurrently run vehicle-controls. The 96-well plate was positioned on the stage (12.5-cm field of view) within the in vivo Imaging System (IVIS) imaging system (Caliper Life Sciences, Inc., Hopkinton, MA, USA), with an open emission filter, binning of 4, and f-stop 1, and a 1-min exposure time. The resultant photons emitted from the live cells were quantified using Living Image® software (version 4.3, Caliper Life Sciences, Inc.). […]

Another assay deals with E. cloacae 6053. Description: microbe, parasite or virus in culture. It counts as cell-based. Here is the method: as §1, §2
For the next assay, the system named is E. cloacae 6054. The experiment in a line: microbe, parasite or virus in culture. It counts as cell-based. As to the method:
as §1, §2

The test system of another assay is MRSA 6381. Description: microbe, parasite or virus in culture. It counts as cell-based, Staphylococcus aureus. Here is the method: as §1, §2
In a further assay the test system is MRSA ATCC 33592. The experiment in a line: microbe, parasite or virus in culture. The format is cell-based, Staphylococcus aureus. As to the method: as §1, §2
A further assay has as its system MRSA 6313. Description: microbe, parasite or virus in culture. The format is cell-based, Staphylococcus aureus. As to the method: as §1, §2
The test system of the next assay is S. aureus B-767. Description: microbe, parasite or virus in culture. It counts as cell-based, Staphylococcus aureus. Here is the method:
as §1, §2

The subject of a further assay is S. aureus 6061. The experiment in a line: microbe, parasite or virus in culture. It counts as cell-based, Staphylococcus aureus. Here is the method:
as §1, §2

Another assay concerns A. baumannii 6043. Description: microbe, parasite or virus in culture. It counts as cell-based, Acinetobacter baumannii. As to the method:
as §1, §2

The subject of the next assay is A. baumannii ATCC 17978. The experiment in a line: microbe, parasite or virus in culture. The format is cell-based, Acinetobacter baumannii. The following applies: Acinetobacter baumannii, ATCC17978, 24 h, read-out: Minimum Inhibitory Concentration (MIC). As to the method:
as §1, §2

The next assay has as its system A. baumannii 6838. Description: microbe, parasite or virus in culture. The format is cell-based, Acinetobacter baumannii. Here is the method: as §1, §2
For assay [2], the system named is bioluminescent S. aureus 49525. The experiment in a line: Bioluminescence time-kill assay. The format is cell-based, Staphylococcus aureus. The following applies: antibiotics after 30 min incubation, triplicates, two independent experiments. As to the method:
as §1, §3

Another assay concerns K. pneumonia 6069. The experiment in a line: microbe, parasite or virus in culture. It counts as cell-based, Klebsiella pneumoniae. As to the method: as §1, §2
The subject of another assay is K. pneumonia 6066. The experiment in a line: microbe, parasite or virus in culture. It counts as cell-based, Klebsiella pneumoniae. Here is the method: as §1, §2
Another assay has as its system K. pneumonia ATCC 10031. Description: microbe, parasite or virus in culture. The format is cell-based, Klebsiella pneumoniae. As to the method: as §1, §2
For assay [3], the system named is P. aeruginosa ATCC 27853. The experiment in a line: microbe, parasite or virus in culture. The format is cell-based, Pseudomonas aeruginosa. As to the method:
as §1, §2

The next assay relates to P. aeruginosa ATCC 19660. The experiment in a line: microbe, parasite or virus in culture. It counts as cell-based, Pseudomonas aeruginosa. As to the method:
as §1, §2

The test system of a further assay is P. aeruginosa 6186. Description: microbe, parasite or virus in culture. The format is cell-based, Pseudomonas aeruginosa. Here is the method: as §1, §2
The next assay has as its system S. aureus ATCC 29213. The experiment in a line: microbe, parasite or virus in culture. The conditions noted are these: for MIC: Staphylococcus aureus. The source says: (§4) The development of resistance was confirmed if the microorganism started growing at continuously higher concentrations. […] Evaluations were done in duplicate.
For assay [4], the system named is P. aeruginosa ATCC 27853. The experiment in a line: Antibiotic resistance profiling, 30 serial passages. The format is cell-based, Pseudomonas aeruginosa. The conditions noted are these: for MIC: Pseudomonas aeruginosa.
Text: as §4

[5] abbreviates: Staphylococcus aureus, MRSA, 24 h, read-out: Minimum Inhibitory Concentration (MIC).

Each structure is given as a SMILES string. ≈ marks a conversion by molar mass, not a printed value. Like-named read-outs stand apart in the source and are kept apart here.

For `CN[C@H](CC(C)C)C(=O)N[C@H]1C(=O)N[C@@H](CC(N)=O)C(=O)N[C@H]2C(=O)N[C@H]3C(=O)N[C@H](C(=O)N[C@H](C(=O)O)c4cc(O)cc(O)c4-c4cc3ccc4O)[C@H](O)c3ccc(c(Cl)c3)Oc3cc2cc(c3O[C@@H]2O[C@H](CO)[C@@H](O)[C@H](O)[C@H]2O[C@H]2C[C@](C)(N)[C@H](O)[C@H](C)O2)Oc2ccc(cc2Cl)[C@H]1O` [Vancomycin, vancomycin], the MIC is 2.1 µM (≈ 3.04 µg/mL) in the assay on S. epidermis ATCC 51625 (Staphylococcus epidermidis, ATCC51625, 24 h, read-out: Minimum Inhibitory Concentration (MIC)); above 88.3 µM in the assay with E. cloacae 6053 (Enterobacter cloacae, 6053, 24 h, read-out: Minimum Inhibitory Concentration (MIC)); above 88.3 µM in the assay on E. cloacae 6054 (Enterobacter cloacae, 6054, 24 h, read-out: Minimum Inhibitory Concentration (MIC)); 1.4 µM (≈ 2.03 µg/mL) in the assay with MRSA 6381 (setting [5]); 1.4 µM (≈ 2.03 µg/mL) in the assay with MRSA ATCC 33592 (Staphylococcus aureus, 24 h, read-out: Minimum Inhibitory Concentration (MIC)); 1.4 µM (≈ 2.03 µg/mL) in the assay on MRSA 6313 (setting [5]). In addition, the MIC is above 88.3 µM in the assay with S. aureus B-767 (Staphylococcus aureus, B767, 24 h, read-out: Minimum Inhibitory Concentration (MIC)); 2.1 µM (≈ 3.04 µg/mL) in the assay with S. aureus 6061 (Staphylococcus aureus, 6061, 24 h, read-out: Minimum Inhibitory Concentration (MIC)); above 88.3 µM in the assay with A. baumannii 6043 (Acinetobacter baumannii, 6043, 24 h, read-out: Minimum Inhibitory Concentration (MIC)); above 88.3 µM in the assay with A. baumannii ATCC 17978; above 88.3 µM in the assay on A. baumannii 6838 (Acinetobacter baumannii, 6838, 24 h, read-out: Minimum Inhibitory Concentration (MIC)); above 88.3 µM with K. pneumonia 6069 (Klebsiella pneumoniae, 6069, 24 h, read-out: Minimum Inhibitory Concentration (MIC)). The MIC is above 88.3 µM in the assay with K. pneumonia 6066 (Klebsiella pneumoniae, 6066, 24 h, read-out: Minimum Inhibitory Concentration (MIC)); above 88.3 µM in the assay on K. pneumonia ATCC 10031 (Klebsiella pneumoniae, ATCC10031, 24 h, read-out: Minimum Inhibitory Concentration (MIC)); above 88.3 µM in the assay with P. aeruginosa ATCC 27853 [3] (Pseudomonas aeruginosa, ATCC27853, 24 h, read-out: Minimum Inhibitory Concentration (MIC)); above 88.3 µM with P. aeruginosa ATCC 19660 (Pseudomonas aeruginosa, ATCC19660, 24 h, read-out: Minimum Inhibitory Concentration (MIC)); above 88.3 µM in the assay on P. aeruginosa 6186 (Pseudomonas aeruginosa, 6186, 24 h, read-out: Minimum Inhibitory Concentration (MIC)). The “Bactericidal activity in time-kill assay” value in assay [1] and in assay [2] was “no trace of antibacterial activity” throughout.
As to `CCC[C@@H]1C[C@@H](C(=O)N[C@@H]([C@H]2O[C@H](SC)[C@H](O)[C@@H](O)[C@H]2O)[C@H](C)Cl)N(C)C1` [clindamycin], the “Fold increase in MIC value, Passage #30 vs #0” value with S. aureus ATCC 29213 (S. aureus ATCC 29213) is listed as 256 fold. Moreover, the MIC stood at 0.125 mg/L (≈ 0.294 µM) in the assay with S. aureus ATCC 29213 (ATCC29213, read-out: MIC on Passage #0 and Passage #1); 32 mg/L (≈ 75.3 µM) with S. aureus ATCC 29213 (ATCC29213, read-out: MIC on Passage #30).
For the molecule `CC[C@H](C)[C@H](NC(=O)[C@H](CCCCN)NC(=O)[C@H](CCC(=O)O)NC(=O)[C@H](CCCCN)NC(=O)[C@H](CO)NC(=O)[C@H](CCCCN)NC(=O)[C@H](CCCNC(=N)N)NC(=O)[C@H](Cc1ccccc1)NC(=O)[C@H](Cc1ccccc1)NC(=O)[C@H](CC(=O)O)NC(=O)CNC(=O)[C@H](CC(C)C)NC(=O)[C@@H](N)CC(C)C)C(=O)NCC(=O)N[C@@H](CCCCN)C(=O)N[C@@H](CCC(=O)O)C(=O)N[C@@H](Cc1ccccc1)C(=O)N[C@@H](CCCCN)C(=O)N[C@@H](CCCNC(=N)N)C(=O)N[C@H](C(=O)N[C@H](C(=O)N[C@@H](CCC(N)=O)C(=O)N[C@@H](CCCNC(=N)N)C(=O)N[C@H](C(=O)N[C@@H](CCCCN)C(=O)N[C@@H](CC(=O)O)C(=O)N[C@@H](Cc1ccccc1)C(=O)N[C@@H](CC(C)C)C(=O)N[C@@H](CCCNC(=N)N)C(=O)N[C@@H](CC(N)=O)C(=O)N[C@@H](CC(C)C)C(=O)N[C@H](C(=O)N1CCC[C@H]1C(=O)N[C@@H](CCCNC(=N)N)C(=O)N[C@H](C(=O)N[C@@H](CCC(=O)O)C(=O)N[C@@H](CO)C(=O)O)[C@@H](C)O)C(C)C)[C@@H](C)CC)C(C)C)[C@@H](C)CC` [LL-37], the “Minimum Inhibitory Concentration (MIC)” value in the assay on S. epidermis ATCC 51625 (S. epidermis ATCC 51625, 24-h incubation, mean of 3 replicates from 2 independent experiments) is >28.5 [128] μM; in the assay on E. cloacae 6053 (E. cloacae 6053, 24-h incubation, mean of 3 replicates from 2 independent experiments), >28.5 [128] μM; with E. cloacae 6054 (E. cloacae 6054, 24-h incubation, mean of 3 replicates from 2 independent experiments) it was >28.5 [128] μM; with MRSA 6381 (MRSA 6381, 24-h incubation, mean of 3 replicates from 2 independent experiments), >28.5 [128] μM; with MRSA ATCC 33592 (MRSA ATCC 33592, 24-h incubation, mean of 3 replicates from 2 independent experiments), >28.5 [128] μM; in the assay with MRSA 6313 (MRSA 6313, 24-h incubation, mean of 3 replicates from 2 independent experiments) it was >28.5 [128] μM. The “Minimum Inhibitory Concentration (MIC)” value in the assay on S. aureus B-767 (S. aureus B-767, 24-h incubation, mean of 3 replicates from 2 independent experiments) is >28.5 [128] μM; with S. aureus 6061 (S. aureus 6061, 24-h incubation, mean of 3 replicates from 2 independent experiments), >28.5 [128] μM; in the assay on A. baumannii 6043 (A. baumannii 6043, 24-h incubation, mean of 3 replicates from 2 independent experiments), 14.2 [64] μM; in the assay on A. baumannii 6838 (A. baumannii 6838, 24-h incubation, mean of 3 replicates from 2 independent experiments), >28.5 [128] μM; in the assay on K. pneumonia 6069 (K. pneumonia 6069, 24-h incubation, mean of 3 replicates from 2 independent experiments), >28.5 [128] μM; with K. pneumonia 6066 (K. pneumonia 6066, 24-h incubation, mean of 3 replicates from 2 independent experiments) it was >28.5 [128] μM. Further, the “Minimum Inhibitory Concentration (MIC)” value in the assay with K. pneumonia ATCC 10031 (K. pneumonia ATCC 10031, 24-h incubation, mean of 3 replicates from 2 independent experiments) was >28.5 [128] μM; in the assay with P. aeruginosa ATCC 27853 [3] (P. aeruginosa ATCC 27853, 24-h incubation, mean of 3 replicates from 2 independent experiments) it was 28.5 [128] μM; in the assay on P. aeruginosa ATCC 19660 (P. aeruginosa ATCC 19660, 24-h incubation, mean of 3 replicates from 2 independent experiments), 28.5 [128] μM; in the assay on P. aeruginosa 6186 (P. aeruginosa 6186, 24-h incubation, mean of 3 replicates from 2 independent experiments) it was >28.5 [128] μM.
In the case of `CNC(C)C1CCC(N)C(OC2C(N)CC(N)C(OC3OCC(C)(O)C(NC)C3O)C2O)O1` (centres unmarked) [gentamicin], the “Fold increase in MIC value, Passage #30 vs #0” value with P. aeruginosa ATCC 27853 [4] (P. aeruginosa ATCC 27853) is 4,096 fold. Further, the MIC with P. aeruginosa ATCC 27853 [4] (ATCC27853, read-out: MIC during Passage #0 and Passage #1) came to 0.125 mg/L (≈ 0.262 µM); with P. aeruginosa ATCC 27853 [4] (ATCC27853, read-out: MIC during Passage #30), 512 mg/L (≈ 1070 µM).
